According to patent publication US6602825B1, “1-Aryl-1,3,5-triazine-4-thione-2,6-diones, production thereof and use thereof as herbicides” (BASF Aktiengesellschaft, priority 2001, dated 2003):

| melting point | Compound |
| --- | --- |
| 225 to 229 °C | Cn1c(=S)n(C)c(=O)n(-c2cc(C(=O)O)c(Cl)cc2F)c1=O [Compound No. 28, 2-Chloro-5-(3,5-dimethyl-2,6-dioxo-4-thioxo-[1,3,5]triazinan-1-yl)-4-fluorobenzoic acid] |
| 209 to 211 °C | Cn1c(=S)n(C)c(=O)n(-c2c(F)cc(Cl)c3ncoc23)c1=O [Compound No. 65, 3-(4-chloro-6-fluorobenzoxazol-7-yl)-1,5-dimethyl-6-thioxo-[1,3,5]triazinane-2,4-dione] |
| 156 to 159 °C | CCc1nc2c(Cl)cc(F)c(-n3c(=O)n(C)c(=S)n(C)c3=O)c2o1 [Compound No. 66, 3-(4-chloro-2-ethyl-6-fluorobenzoxazol-7-yl)-1,5-dimethyl-6-thioxo-[1,3,5]triazinane-2,4-dione] |
